Results taken from patent US20250032448A1, “COMPOUND FOR USE IN THE TREATMENT AND/OR PREVENTION OF PARASITIC MEDIATED DISEASES” (priority 2016, published 2025).
≈ marks a conversion by molar mass, not a printed value. Read-outs that look alike come from different tables or passages of the source.

What was measured:
[1] = test system: Plasmodium falciparum 3D7 (chloroquine-sensitive strain); test: In vitro drug sensitivity assay (modified WHO microtest), schizont maturation; format: cell-based
Method: (§1) For malaria culture, venous blood (not more than 50 ml) was collected by venepuncture from healthy adult volunteers. Host leukocytes were removed using a CF11 column, and packed infected red blood cells were used for the in vitro drug sensitivity assay. Ethical approval for this study was obtained from the Institutional Review Board, National University of Singapore (IRB protocol reference: B-14-056).
(§2) Parasites were thawed and grown in leukocyte-depleted red blood cells at 2% haematocrit at 37° C. in controlled conditions (3% oxygen, 4% carbon dioxide and 93% nitrogen), in RPMI 1640 tissue culture medium supplemented with 50 μg/ml hypoxanthine, 25 mM 4-(2-hydroxyethyl) piperazine-1-ethanesulfonic acid (HEPES), 0.3 g/L L-glutamine, 11 mM glucose, 25 mM NaHCO3, 2.5 μg/ml gentamicin and 0.5% w/v Albumax II.
(§3) Parasites were synchronized using sorbitol treatment. Red blood cells were resuspended in 5% (w/v) D-sorbitol and incubated at 37° C. for 20 minutes, after which the erythrocytes were washed twice, resuspended in RPMI and returned to culture conditions. Thin smears were made before and after each experiment to determine parasitaemia and parasite stage.
(§4) Crude extracts or fractions were preliminarily screened at a single concentration. For preliminary screening of isolated compounds, the starting concentrations used were 11.36 μg/ml and 5.953 μg/ml. Duplicates were performed. […] Seven concentrations of serial dilutions (two-fold) of each extract were added in duplicate on the 96-well pre-dosed drug plates (Nunc, Singapore). […] Triplicates were performed for IC50 determination.
(§5) 200 μl of a 2% haematocrit blood medium mixture consisting of RPMI 1640, […] gentamicin sulphate, 25 mM PEPES, 11 mM glucose, 200 μM hypoxanthine, and 0.5% w/v Albumax II (Gibco, Singapore) was added to each well of plates pre-dosed with the extracts. The parasites were cultured continuously in vented culture flasks in a gas chamber at 37° C. with 5% CO2 until they reached mature stage.
(§6) Thick blood smears were made from each well and stained with 5% Giemsa solution for 15 mins, and examined microscopically. The average number of schizonts (defined as parasites with five or more chromatin dots visible under microscopy) remaining at the end of the 42-48 hour incubation period per 100 parasites in each well was determined by microscopy, and normalized to the control well. Ring stage parasites and gametocytes were not included in the count. The dose-response curves were analysed using nonlinear regression analysis, and the concentration which inhibited 50% growth (IC50) was derived using an inhibitory sigmoid Emax model (Le Nagard et al. 2011).

[2] = test system: Plasmodium falciparum Dd2 (chloroquine-resistant strain); test: as above; format: cell-based
Method: as §1, §2, §3, §4, §5, §6

in vitro = conditions: human
Method: (§7) Serial dilutions were performed using complete media (RPMI supplemented with 10% foetal bovine serum). The final concentration of DMSO for all test samples was not more than 0.4%.
(§8) Cytotoxicity was determined using the WST-1 assay (WST-1 cell proliferation reagent, Roche, Singapore). Exponentially growing NL20 cells were plated in 96-well plates at an optimized cell density of 3.5×10^4 cells/100 μl. The adherent cells were incubated overnight at 37° C. and 5% CO2 to allow attachment. After 48 h of treatment with test samples, the media were aspirated and replaced with 10% v/v WST-1 in complete media. The plates were incubated for 30 min. The absorbance in each well was quantitated at 440 nm against a reference wavelength of 650 nm using a microplate reader (EnSpire Multimode Plate Reader, PerkinElmer, USA).
(§9) Cell viability was expressed as a percentage of the vehicle control. […] Each reported value is the mean±SD from three independent experiments. The selectivity index (SI) was determined by taking the ratio of IC50 against P. falciparum and CC50 against NL20 cells.

NL20 cells = test: Cytotoxicity assay (WST-1)
Method: as §7, §8, §9

uninfected host RBCs = format: cell-based; conditions: human, 1 h
Method: The toxicity of anisolactone in uninfected host RBCs was evaluated using the haemolysis assay, according to a protocol described previously by Sarkar et al. (2016) with some modifications. Freshly obtained RBCs were washed thrice with PBS (pH 7.4). The haemolysis assay was performed at 2% hematocrit with two-fold serial dilutions from 0.1 mg/ml of test compounds in a final volume of 200 μl, followed by incubation at 37° C. for 1 h. 1% Triton-X (v/v) was used as a positive control. Non-specific haemolysis was corrected for by using untreated RBCs as negative control. After incubation, the plates were centrifuged at 2000 rpm for 5 min and the absorbance of the supernatant was measured at 540 nm using a spectrophotometric plate reader (Tecan Sunrise, Switzerland) to measure the amount of haemoglobin released upon RBC lysis. The percentage of haemolysis was calculated as follows: [(Optical density (OD)540 of sample−OD540 of PBS)/(OD540 of 1% Triton X-100−OD540 of PBS)]×100. The compounds were tested in triplicates. Ethics approval for this study was obtained from the Institutional Review Board, National University of Singapore (IRB protocol reference: B-14-056).

[3] = 3D7, read-out: IC50 (in μg/ml) against P. falciparum 3D7
[4] = 3D7, read-out: IC50 against P. falciparum 3D7 (Table 4)
[5] = 3D7, read-out: IC50 against P. falciparum 3D7 (molar value in brackets)
[6] = DD2, read-out: IC50 (in μg/ml) against P. falciparum Dd2
[7] = DD2, read-out: IC50 against P. falciparum Dd2 (molar value in brackets)

| SMILES | IC50 [1, 3] | IC50 [1, 4] | IC50 [1, 5] | IC50 [2, 6] | IC50 [2, 7] | CC50 at 48 h (in vitro) | SI (selectivity index) (NL20 cells; P. falciparum 3D7 IC50 versus NL20 CC50) | IC50 ([1]; 3D7, as used for the selectivity index, read-out: IC50 against P. falciparum 3D7 (Table 4)) | IC50 ([1]; 3D7, n = 3, 42-48 hour incubation, read-out: IC50 (in μg/ml) against P. falciparum 3D7) | IC50 ([1]; 3D7, n=3, read-out: IC50 against P. falciparum 3D7 (molar value in brackets)) | cytotoxic effects on host cells (NL20) (NL20 cells) | % Haemolysis (uninfected host RBCs) |
| --- | --- | --- | --- | --- | --- | --- | --- | --- | --- | --- | --- | --- |
| C[C@H]1[C@H](OC(=O)CCC(=O)O)O[C@@H]2O[C@@]3(C)CC[C@H]4[C@H](C)CC[C@@H]1[C@@]24OO3 [Artesunate, artesunate] | 0.000693 ± 1.11e-08 µg/mL | 0.000693 µg/mL | 1.8 nM | 0.00211 ± 6.8e-07 µg/mL | 5.48 nM | 5.63 ± 0.82 µg/mL (≈ 14.6 µM) | 8123 | – | – | – | – | – |
| CCN(CC)CCCC(C)Nc1ccnc2cc(Cl)ccc12 (centres unmarked) [Chloroquine, chloroquine diphosphate] | 0.0128 ± 1.4e-05 µg/mL | 0.0128 µg/mL | 24.4 nM | 0.16 ± 0.04 µg/mL | 310 nM | – | – | – | – | – | – | – |
| CC1=CC(C/C(C)=C/COc2c3ccoc3cc3oc(=O)ccc23)OC1=O (centres unmarked) [Compound 1, anisolactone] | – | – | – | – | – | – | – | 7.5 µg/mL | 7.5 µg/mL | 20500 nM | did not exhibit cytotoxic effects | 0.99 ± 0.28% |
